Common to all, as to format: in vivo
For data set [1], the system named is convulsant effects of electric shock. Description: Action against the convulsant effects of electric shock in the mouse. The following applies: po, 0.5 h, 30 minutes before shock, 13 to 16 mA for 0.1 sec, read-out: Percentage protection against the convulsant effects of the electric shock; for responders at 500 mg/kg: 500 mg/kg p.o. The method, then: (§1) 2.3--Test on the action against the convulsant effects of electric shock and of strychnine in the mouse
(§2) 30 minutes after administration of the compounds to groups of 10 animals, there is investigated the protection induced against:
tonic crisis (extension of rear feet) provoked by supramaximal transcranial electric stimulation (13 to 16 mA for 0.1 sec).
(§3) The results are expressed as a percentage of protection based on a control group which have only received the administration vehicle for the compounds.

Data set [2] is described as follows: Acute toxicity for oral administration in mice. The following applies: mouse, in vivo, suspension in 10% gum arabic. The method, then: (§4) 1--ACUTE TOXICITY FOR ORAL ADMINISTRATION IN MICE
(§5) The compounds are administered orally in increasing doses in suspension in a 10% gum arabic solution to groups of 5 .female. mice of mean weight 25 g. The 50% lethal doses (LD 50) are calculated by the method of KARBER and BEHRENS (Arch. Exp. Path. Pharmakol. 1935, 177, 379-388).
(§6) The LD 50's found are summarised in Table IV below and indicate that the tested compounds have low toxicity.

Data set [3] has as its system spontaneous motor activity. Description: Action on spontaneous motor activity in the mouse (BOISSIER). The following applies: po, 0.5 h, 30 minutes after administration, vs control, read-out: Percentage variation in motor activity; for change in vivo at 400 mg/kg: 400 mg/kg p.o.; for change in vivo at 500 mg/kg: 500 mg/kg p.o. The method, then:
2.1--Action on spontaneous motor activity in the mouse
30 minutes after administration per os of the test compounds, the mice (groups of 12 animals) are installed in individual cages in a BOISSIER activity measuring cupboard and move about before two photoelectric cells placed according to the rectangular coordinates. Meters register the movement during 20 minutes.

The subject of data set [4] is convulsant effects of strychnine. Put plainly: Action against the convulsant effects of strychnine in the mouse. Particulars: 30 minutes before strychnine 1.5 mg/kg s.c. The method, then: as §1, §2
convulsive crisis and death provoked by injection of strychnine at a limiting lethal dose of 1.5 mg/kg s.c.
as §3

Data set [5] has as its system pentobarbital hypnosis time. Description: Action on the pentobarbital hypnosis time in the mouse. The following applies: po, 0.5 h, 30 minutes before pentobarbital 50 mg/kg i.v., vs control, read-out: Percentage variation in pentobarbital hypnosis time; for change in vivo at 400 mg/kg: 400 mg/kg p.o. An excerpt: 2.2--Action on the pentobarbital hypnosis time in the mouse
The hypnosis time of each mouse is counted in minutes from the moment when the animal may be placed without resistance on its back until that when it spontaneously gets back on its feet.

Another data set deals with mice. Put plainly: Acute toxicity for oral administration in mice. Particulars: suspension in 10% gum arabic. The method, then:
as §4, §5, §6

With `COc1cc(NC(=O)N(C)C2CCCC2)cc(OC)c1OC` [compound 801], the responders at 250 mg/kg in data set [1] (250 mg/kg p.o.) amounted to 37%. Further, in data set [2] (po), the LD50 (as a rule, the dose at which mortality reaches 50%) stood at 2500 mg/kg. Besides, the change in vivo at 250 mg/kg in data set [3] (250 mg/kg p.o.) was -29%; in data set [5] (250 mg/kg p.o.), 70%. Also, the “Percentage protection against the convulsant effects of strychnine” value (shortened to “Percentage protection”) in data set [4] (250 mg/kg p.o.) worked out at 100%.

`COc1cc(NC(=O)N2CCN(C)CC2)cc(OC)c1OC` [compound 759] showed an LD50 in data set [2] (po) of 4000 mg/kg. Also, the change in vivo at 400 mg/kg in data set [3] was -45%; in data set [5], 22%. For the same compound, in data set [4] (400 mg/kg p.o.), the “Percentage protection” value amounted to 55%.

Regarding `COc1cc(NC(=O)N2CCCCC2)cc(OC)c1OC` [compound 776], the LD50 in data set [2] (po) was found to be 3750 mg/kg. Besides, the values for the change in vivo at 375 mg/kg in data set [3] (375 mg/kg p.o.) and in data set [5] (375 mg/kg p.o.) were -48% and 130%, respectively. In data set [4] (375 mg/kg p.o.), the “Percentage protection” value was determined as 44%.

Turning to `COc1cc(NC(=O)N(C)C)cc(OC)c1OC` [compound 775], the LD50 in data set [2] (po) was 1700 mg/kg. For the same compound, the change in vivo at 170 mg/kg was -40% in data set [3] (170 mg/kg p.o.) and 149% in data set [5] (170 mg/kg p.o.). For the same compound, the “Percentage protection” value in data set [4] (170 mg/kg p.o.) was determined as 33%.

As for `COc1cc(NC(=O)N2CC=CCC2)cc(OC)c1OC` [compound 819], the responders at 500 mg/kg in data set [1] is 40%. This compound also had an LD50 in data set [2] (po) of 5000 mg/kg. The change in vivo at 500 mg/kg in data set [3] was -18%. Moreover, the “Percentage protection” value in data set [4] (500 mg/kg p.o.) amounted to 70%.

For the compound `COc1cc(NC(=O)CN2CCOCC2)cc(OC)c1OC` [compound 833], the “LD50” value in the data set with mice is 3000 mg/kg.

As for `COc1cc(NC(=O)N2CCOCC2)cc(OC)c1OC` [compound 733], the responders at 400 mg/kg in data set [1] (400 mg/kg p.o.) was 30%. Also, the LD50 in data set [2] (po) was 4000 mg/kg. The change in vivo at 400 mg/kg in data set [3] was -74%; in data set [5], 164%. Further, the “Percentage protection” value in data set [4] (400 mg/kg p.o.) was 100%.

For the compound `COc1cc(OC(=O)N2CCOCC2)cc(OC)c1OC` [compound 754], in data set [1], the responders at 500 mg/kg amounted to 90%. Besides, in data set [2], the 50% lethal dose (LD50) was determined as 5000 mg/kg. In addition, the change in vivo at 500 mg/kg is -41% in data set [3] and 178% in data set [5] (500 mg/kg p.o.). Moreover, the “Percentage protection” value in data set [4] (500 mg/kg p.o.) is 100%.
